# Assay results as given in PMC6382696, “Drug Repurposing: The Anthelmintics Niclosamide and Nitazoxanide Are Potent TMEM16A Antagonists That Fully Bronchodilate Airways” (Frontiers in Pharmacology, 2019).
# Biological target: T1, hTMEM16A (abc) (Homo sapiens, UniProt Q5XXA6, DEL476-501)
# T1 sequence (Q5XXA6 with tags, fused parts or gaps isoform Q5XXA6-5 DEL539-564): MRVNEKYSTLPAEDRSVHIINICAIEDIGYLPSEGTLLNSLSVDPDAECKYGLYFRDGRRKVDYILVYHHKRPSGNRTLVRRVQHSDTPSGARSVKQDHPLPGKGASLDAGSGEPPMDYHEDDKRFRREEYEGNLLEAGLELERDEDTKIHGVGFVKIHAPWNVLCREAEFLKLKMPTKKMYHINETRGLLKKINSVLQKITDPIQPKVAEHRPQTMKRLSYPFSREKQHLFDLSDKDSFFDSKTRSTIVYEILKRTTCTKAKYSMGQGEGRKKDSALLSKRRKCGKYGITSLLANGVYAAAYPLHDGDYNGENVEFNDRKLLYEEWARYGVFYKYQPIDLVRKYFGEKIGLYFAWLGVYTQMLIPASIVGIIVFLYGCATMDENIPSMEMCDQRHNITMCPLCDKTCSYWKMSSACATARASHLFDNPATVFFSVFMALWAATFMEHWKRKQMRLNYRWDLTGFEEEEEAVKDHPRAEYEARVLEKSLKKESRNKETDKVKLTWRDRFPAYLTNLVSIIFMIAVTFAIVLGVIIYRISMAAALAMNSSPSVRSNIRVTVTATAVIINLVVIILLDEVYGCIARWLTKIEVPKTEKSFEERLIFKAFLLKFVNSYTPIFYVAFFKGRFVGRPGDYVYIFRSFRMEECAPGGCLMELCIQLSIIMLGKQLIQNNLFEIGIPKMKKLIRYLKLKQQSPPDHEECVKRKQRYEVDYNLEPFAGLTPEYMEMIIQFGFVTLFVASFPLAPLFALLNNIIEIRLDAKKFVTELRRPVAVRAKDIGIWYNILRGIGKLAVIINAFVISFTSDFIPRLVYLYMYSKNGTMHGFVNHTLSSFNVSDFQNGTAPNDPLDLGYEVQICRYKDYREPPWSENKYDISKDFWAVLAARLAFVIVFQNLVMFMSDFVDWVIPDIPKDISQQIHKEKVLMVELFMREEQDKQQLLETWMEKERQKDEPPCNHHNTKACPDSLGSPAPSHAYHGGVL
# Experiment: IonWorks Barracuda perforated patch clamp, ionomycin-activated TMEM16A inward current
# Format: cell-based
# Conditions: 10 μM ionomycin, Vhold −30 mV
# Source text: HEK293 cells stably expressing the human TMEM16A (abc) variant and CHO cells expressing the human CFTR gene were from ChanTest. The IonWorks Barracuda (IWB) procedure and data provided are from outsourced studies performed at ChanTest (Charles River Discovery, Cleveland, OH, United States) who were blinded as to the identity of the test articles or compounds provided by Amgen. As a control, benchmark inhibitors CFTRinh-172, GlyH-101 and benzbromarone were included amongst the blinded compounds submitted and performed as expected.
# For IonWorks Barracuda studies on TMEM16A compounds, in brief eight test article concentrations were applied to naïve cells (n = 4, where n = the number of replicate wells/concentration) via steel needles of a 384-channel pipettor. Each application consists of addition of 20 μl of 2X concentrated test article solution to the total 40 μl final volume of the extracellular well of the Population Patch ClampTM (PPC) planar electrode. This addition is followed by mixing (one time) of the PPC well content. Duration of exposure to each test article concentration was at least 5 min. The electrophysiology procedure used: (a) Intracellular solution containing 50 mM CsCl, 90 mM CsF, 5 mM MgCl2, 1 mM EGTA, 10 mM HEPES, adjusted to pH 7.2 with CsOH; (b) Amphotericin B for patch perforation, where 30 mg/ml stock solution of amphotericin B in DMSO is added to internal solution to final concentration of 33.3 μg/ml; (c) Extracellular solution containing HEPES-buffered physiological saline (HBPS): 137 mM NaCl, 4 mM KCl, 1.8 mM CaCl2, 1 mM MgCl2, 10 mM HEPES, 10 mM glucose, adjusted to pH 7.4 with NaOH; and (d) Ionomycin stimulation of chloride currents where 10 μM ionomycin is added to all test solutions including vehicle and positive controls. […] After establishment of a whole-cell configuration via patch perforation (∼7–10 min exposure to amphotericin B), membrane currents were recorded using the on-board patch clamp amplifiers. […]
row,SMILES,"effect on ionomycin-activated inward current at −100 mV, perforated patch clamp"
1,O=C(O)c1cccnc1Nc1cccc(C(F)(F)F)c1 [Niflumic Acid],inhibition (not stimulation)
2,CCc1oc2ccccc2c1C(=O)c1cc(Br)c(O)c(Br)c1 [Benzbromarone],effective in blocking
3,N#Cc1c(C(F)(F)F)cc(O)n2c1nc1ccccc12 [1PBC],robust inhibition
